Several values for one entry are separate records, joined by “and”; a condition that tells them apart may be missing. Identical values can stand only once. Like-named read-outs stand apart in the source and are kept apart here.
What was measured:
[1] = system: hydrocodone-induced antinociception; experiment: 55° C. warm-water tail-flick assay: inhibition of hydrocodone-induced antinociception; type: in vivo, mice
[2] = system: hydrocodone effects: GI transit (peripheral) vs. antinociception (central); experiment: Peripheral vs. central potency, (antinociception ID50)/(GI transit ID50); type: in vivo, mice; conditions: for fold more potent peripherally than centrally: over all administration routes
[3] = Neutral antagonist comparison (Table 3); conditions: for Equivalent dose (as compared to 1.5 mg to 5 mg 6β-naltrexol): 70 kg subject; for potency, times less potent than 6β-naltrexol: stated as 'may be'/'probably'
[4] = Oral bioavailability of the neutral antagonists
[5] = Concentrations in plasma and brain tissue after i.p. injection (LC/MS/MS); conditions: for change of levels at 60 min from those measured at 10 min: after i.p. injection; for concentration at 10 min / concentration at 60 min: mouse, 1 mg/kg
[6] = system: hydrocodone induced GI inhibition; experiment: GI transit assay (charcoal meal): reversal of hydrocodone induced GI inhibition; conditions: for induction of diarrhea: on administration of the antagonist
[7] = po; cited from earlier work
[8] = system: opioid withdrawal in methadone-dependent subjects; experiment: Double-blind ascending dose study in methadone maintenance subjects: withdrawal scales, VAS, vital signs, pupillometry, tolerability
[9] = humans; literature; cited from earlier work
[10] = 1 mg/kg i.p., 60 min after injection
[11] = 10 mg/kg i.p., 10 min after injection
[12] = 10 mg/kg i.p., 60 min after injection
[13] = antagonist i.v., hydrocodone A90 3.2 mg/kg i.v.
[14] = antagonist p.o., hydrocodone A90 3.2 mg/kg i.v.
[15] = antagonist p.o. co-administered with hydrocodone A90 32 mg/kg p.o.

6β-naltrexamide
potency in blocking hydrocodone-induced antinociception, lower than that of 6β-naltrexol ([1]; mouse, in vivo): approximately 10 fold
time of peak effect of antinociception inhibition ([1]; mouse, in vivo): 120 min and 120 to 180 min
peripheral over central antagonist selectivity compared to 6β-naltrexol ([2]; animal experiments): somewhat higher
Fold-Shift (antinociception ID50)/(GI transit ID50) ([2]; antagonist p.o./hydrocodone i.v.): 14 and 14.3
selectivity in blocking peripheral over central opioid effects ([2]; mice, oral administration, earlier experiments): approximately twenty-fold
fold more potent peripherally than centrally [2]: 14-25 fold
Half-life of active metabolites [3]: Estimated >12 hours
Bioavailability for CNS (central) effects ([3]; given orally): ~25%
Equivalent dose (as compared to 1.5 mg to 5 mg 6β-naltrexol) ([3]; given orally): 3 to 8 mg
potency, times less potent than 6β-naltrexol [3]: 2-3 fold
oral bioavailability (into the circulation), estimated ([4]; humans, estimated): approximately 25%
oral bioavailability ([4]; species not stated): ~20%
Brain concentration ([5]; 1 mg/kg i.p., 10 min after injection): 6 ± 1 ng/g
Plasma concentration ([5]; 1 mg/kg i.p., 10 min after injection, mean±SD, n=3): 115 ± 2 ng/mL
Brain concentration [5, 10]: 4 ± 1 ng/g
Plasma concentration [5, 10]: 18 ± 1 ng/mL
Brain concentration [5, 11]: 27 ± 6 ng/g
Plasma concentration [5, 11]: 933 ± 221 ng/mL
Brain concentration [5, 12]: 24 ± 1 ng/g
Plasma concentration [5, 12]: 166 ± 77 ng/mL
change of levels at 60 min from those measured at 10 min [5]: had not changed
blood half-life compared with 6β-naltrexol ([5]; mice, preliminary experiments): longer blood half-life than 6β-naltrexol
potency in blocking peripheral effects, lower than 6β-naltrexol on a mg/kg basis ([6]; animal experiments): 2-3 fold
GI Transit ID50 [6, 13]: 0.173 mg/kg
GI Transit ID50 ([6]; antagonist p.o./hydrocodone p.o., full dose-response curves not available): 1 to 2 mg/kg
GI Transit ID50 [6, 14]: 1.92 mg/kg
GI transit ID50, expected ([6]; i.v. administration): 0.1 to 0.2 mg/kg
induction of diarrhea [6]: absent
GI transit ID50, expected ([6]; p.o. administration): 1 to 2 mg/kg

N[C@@H]1CC[C@@]2(O)[C@H]3Cc4ccc(O)c5c4[C@@]2(CCN3CC2CC2)[C@H]1O5 [6β-naltrexamine]
Equivalent dose (as compared to 1.5 mg to 5 mg 6β-naltrexol) ([3]; given orally): 7.5 to 20 mg
potency, times less potent than 6β-naltrexol [3]: 3-6 fold

COc1ccc2c3c1O[C@H]1[C@@H](O)C=C[C@H]4[C@@H](C2)N(C)CC[C@@]341 [Codeine]
Bioavailability for CNS (central) effects [7]: ≈90%

COc1ccc2c3c1O[C@H]1C(=O)CC[C@H]4[C@@H](C2)N(C)CC[C@]314 [Hydrocodone]
Bioavailability for CNS (central) effects [7]: ≧80%

CN1CC[C@]23CCCC[C@H]2[C@H]1Cc1ccc(O)cc13 [Levorphanol]
Bioavailability for CNS (central) effects [7]: 70%

C=CCN1CC[C@]23c4c5ccc(O)c4O[C@H]2C(=O)CC[C@@]3(O)[C@H]1C5 [Naloxone, naloxone, reference compound]
withdrawal symptoms ([8]; 0.050 mg, methadone-dependent subjects): detectable withdrawal symptoms
Diastolic BP, peak value ([8]; dose 0.05 mg): 76.5 ± 3.8 mmHg
Heart Rate, peak value ([8]; dose 0.05 mg): 63.5 ± 8.0 bpm
SOWS (total), peak value ([8]; dose 0.05 mg): 3.0 ± 2.8
VAS Any Drug Effect, peak value ([8]; dose 0.05 mg): 15.4 ± 23.7
VAS Bad Drug Effect, peak value ([8]; dose 0.05 mg): 13.5 ± 25.0
VAS Good Drug Effect, peak value ([8]; dose 0.05 mg): 10.4 ± 18.9
VAS Opioid Withdrawal, peak value ([8]; dose 0.05 mg): 5.6 ± 8.2
VAS Sickness, peak value ([8]; dose 0.05 mg): 4.6 ± 6.5
OOWS (total), peak value ([8]; dose 0.05 mg, mean ± standard deviation): 2.5 ± 0.6

O=C1CC[C@@]2(O)[C@H]3Cc4ccc(O)c5c4[C@@]2(CCN3CC2CC2)[C@H]1O5 [Naltrexone, naltrexone, reference compound]
Antinociception ID50 ([1]; antagonist i.v. pretreatment, hydrocodone A90 3.2 mg/kg i.v.): 0.0411 mg/kg
Antinociception ID50 [1, 15]: 0.914 mg/kg
Antinociception ID50 ([1]; antagonist p.o. pretreatment, hydrocodone A90 3.2 mg/kg i.v.): 0.534 mg/kg
time of peak effect of antinociception inhibition ([1]; i.v. administration, hydrocodone 3.2 mg/kg i.v.): 30 min
time of peak effect of antinociception inhibition ([1]; p.o. administration, hydrocodone 3.2 mg/kg i.v.): 45 min
fold more potent peripherally than centrally [2]: nearly equipotent peripherally and centrally
fraction converted to 6β-naltrexol [9]: approximately 43%
change of levels at 60 min from those measured at 10 min [5]: ~90%
detectability after administration of 6β-naltrexol ([5]; i.p. 6β-naltrexol): no naltrexone was detectable
concentration at 10 min ([5]; brain, intraperitoneal): 69 ± 20 ng/g
concentration at 60 min ([5]; brain, intraperitoneal): 9 ± 1 ng/g
concentration at 10 min ([5]; in vivo): 54 ± 16 ng/mL
concentration at 60 min ([5]; in vivo): 4 ± 1 ng/mL
GI Transit ID50 [6, 13]: 0.0456 mg/kg
GI Transit ID50 [6, 15]: 1.40 mg/kg
GI Transit ID50 [6, 14]: 0.194 mg/kg
induction of diarrhea [6]: strong induction of diarrhea was present

CN1CC[C@]23c4c5ccc(O)c4O[C@H]2C(=O)CC[C@@]3(O)[C@H]1C5 [Oxymorphone]
Bioavailability for CNS (central) effects [7]: 10%

CCOC(=O)C1(c2ccccc2)CCN(C)CC1 [Pethidine]
Bioavailability for CNS (central) effects [7]: 50-60%

COc1cccc(C2(O)CCCCC2CN(C)C)c1 (stereo not shown) [Tramadol]
Bioavailability for CNS (central) effects [7]: 68-72%
